Results on 16 compounds are retold here after patent publication US7855205B2, “Pyrimidinyl substituted fused-pyrrolyl compounds useful in treating kinase disorders” (Janssen Pharmaceutica NV, priority 2004, dated 2010).

For one experiment, the target named is T1, CDK1:Cyclin-B (Homo sapiens, UniProt P06493).
T1 construct: purchased New England Biolabs, Beverly, Mass; 6020; host or cells: insect cells
The experiment is described as follows: CDK1 Screening Assay. Type of experiment: biochemical. The following applies: 33P-γ-ATP incorporation, 10 μM ATP. A digest of the protocol:
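Human CDK1/cyclin B co-expressed in insect cells (30 ng/well) in 50 mM Tris pH 8, 10 mM MgCl2, with 10 μM ATP, 33P-γ-ATP and 0.025 μM biotinylated histone H1 peptide (reaction-mix levels); 1% DMSO final. 1 h at 30° C. 33P incorporation into streptavidin-captured peptide by scintillation counting.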

Another experiment deals with T2, VEGF-R2 (Rattus norvegicus, UniProt O08775).
T2 construct: polyhistidine (N)
The experiment is described as follows: VEGF-R2 Screening Assay. Type of experiment: biochemical. The following applies: 33P-γ-ATP incorporation, 10 μM ATP. The method in brief:
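The N-terminally His-tagged rat VEGF-R2 kinase domain (aa 786-1343), diluted in 50 mM Tris-HCl pH 8.0 with 0.1% BSA, phosphorylated a biotinylated histone-H1 peptide with 33P-γ-ATP on Flashplates for 1 h at 30 °C in 1% DMSO. After washes with EDTA/PBS, immobilized 33P was counted by scintillation.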

A further experiment has as its target T3, HER2 (Homo sapiens, UniProt P04626).
T3 construct: polyhistidine (N)
The experiment in a line: HER2 kinase Screening Assay. The experiment is classed as biochemical. The following applies: 33P-γ-ATP incorporation, 10 μM ATP.

Another experiment deals with T4, Aurora-A (Mus musculus, UniProt P97477).
T4 construct: made in house; host or cells: sf9 insect cells
T4 sequence (P97477 1-395): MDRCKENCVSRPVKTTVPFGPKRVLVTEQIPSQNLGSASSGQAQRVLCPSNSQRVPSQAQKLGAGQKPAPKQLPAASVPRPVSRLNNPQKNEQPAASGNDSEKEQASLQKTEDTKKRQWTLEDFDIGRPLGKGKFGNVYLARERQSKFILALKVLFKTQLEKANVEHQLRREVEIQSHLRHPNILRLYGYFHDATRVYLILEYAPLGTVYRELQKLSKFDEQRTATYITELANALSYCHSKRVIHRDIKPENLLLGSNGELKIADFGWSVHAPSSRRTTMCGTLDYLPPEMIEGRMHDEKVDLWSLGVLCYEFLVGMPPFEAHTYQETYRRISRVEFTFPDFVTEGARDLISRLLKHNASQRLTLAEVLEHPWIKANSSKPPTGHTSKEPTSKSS
The experiment is described as follows: Aurora-A Screening Assay. As to conditions: 33P-γ-ATP incorporation, 10 μM ATP. Type of experiment: biochemical, murine.

The subject of experiment [1] is HeLa cervical adenocarcinoma. The experiment in a line: Inhibition of cell proliferation (14C-thymidine incorporation), HeLa.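 Further: HeLa cells in 96-well scintillating plates, compound for 24 h then 24 h more with 14C-thymidine, counting label built into new DNA against DMSO-only control wells.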 The experiment is classed as cell-based. As to conditions: Homo sapiens. (In general: Incorporation of labelled thymidine or its analogues reports DNA synthesis.)
For another experiment, the system named is HCT-116 colon carcinoma. The experiment in a line: Inhibition of cell proliferation (14C-thymidine incorporation), HCT-116. The following applies: Homo sapiens, HCT-116, HCT116. The experiment is classed as cell-based. A digest of the protocol:
(§1)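 Cells (3000-8000/well) grown 24 h at 37° C, 5% CO2, then given compound in DMSO for 24 h before adding methyl 14C-thymidine (0.2 uCi/well) for a further 24 h with drug. After PBS washes, incorporation into DNA counted by scintillation.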

The next experiment deals with A375 malignant melanoma. The experiment is described as follows: Inhibition of cell proliferation (14C-thymidine incorporation), A375. The following applies: Homo sapiens, A-375. Type of experiment: cell-based, human. The method in brief: as §1
The target in a further experiment is T5, RET (Homo sapiens, UniProt P07949).
T5 construct: the RET cytoplasmic domain consisting of the last 492 amino acids of the intracellular domain of the RET tyrosine kinase; histidine tag (N); made in house; host or cells: Hi5 insect cells
T5 sequence (P07949 658-1114 limits assumed): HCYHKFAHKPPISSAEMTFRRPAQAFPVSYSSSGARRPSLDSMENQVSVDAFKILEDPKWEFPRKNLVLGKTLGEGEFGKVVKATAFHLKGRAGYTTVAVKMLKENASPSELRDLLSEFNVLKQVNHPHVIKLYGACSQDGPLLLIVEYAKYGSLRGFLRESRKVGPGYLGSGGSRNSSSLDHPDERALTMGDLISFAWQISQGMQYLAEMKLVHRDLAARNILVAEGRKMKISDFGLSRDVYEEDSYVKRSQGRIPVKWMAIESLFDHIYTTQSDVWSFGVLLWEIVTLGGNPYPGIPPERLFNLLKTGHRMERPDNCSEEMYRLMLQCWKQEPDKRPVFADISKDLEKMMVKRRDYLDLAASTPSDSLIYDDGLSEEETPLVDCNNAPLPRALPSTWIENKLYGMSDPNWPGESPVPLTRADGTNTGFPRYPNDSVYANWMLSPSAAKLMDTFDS
The experiment in a line: RET Kinase Screening Assay. The experiment is classed as biochemical. The following applies: 33P-γ-ATP incorporation, 10 μM ATP.

T2 sequence (O08775 786-1343): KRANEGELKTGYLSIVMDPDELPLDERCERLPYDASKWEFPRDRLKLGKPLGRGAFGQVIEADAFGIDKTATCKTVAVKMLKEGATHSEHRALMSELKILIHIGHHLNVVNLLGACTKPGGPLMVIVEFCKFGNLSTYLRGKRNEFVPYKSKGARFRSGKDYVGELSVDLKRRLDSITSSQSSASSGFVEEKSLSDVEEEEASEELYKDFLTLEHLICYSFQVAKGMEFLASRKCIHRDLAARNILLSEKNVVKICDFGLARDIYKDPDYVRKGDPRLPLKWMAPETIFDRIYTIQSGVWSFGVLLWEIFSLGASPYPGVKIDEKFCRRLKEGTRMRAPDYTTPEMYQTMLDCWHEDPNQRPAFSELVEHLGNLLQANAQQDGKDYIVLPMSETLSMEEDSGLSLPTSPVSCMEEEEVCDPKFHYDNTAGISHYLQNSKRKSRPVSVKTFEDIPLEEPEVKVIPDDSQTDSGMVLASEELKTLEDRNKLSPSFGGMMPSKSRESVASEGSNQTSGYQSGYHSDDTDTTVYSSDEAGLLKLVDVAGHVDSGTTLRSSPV
T1 sequence (P06493 whole entry): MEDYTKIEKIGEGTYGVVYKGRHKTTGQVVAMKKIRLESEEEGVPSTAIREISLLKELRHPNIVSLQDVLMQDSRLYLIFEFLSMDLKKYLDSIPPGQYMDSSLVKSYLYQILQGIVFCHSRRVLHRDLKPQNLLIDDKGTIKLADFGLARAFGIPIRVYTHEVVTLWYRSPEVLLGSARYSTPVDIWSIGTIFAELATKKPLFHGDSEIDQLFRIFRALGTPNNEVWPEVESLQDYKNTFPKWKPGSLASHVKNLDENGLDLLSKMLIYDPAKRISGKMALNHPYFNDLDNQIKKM
T1 sequence (P14635 whole entry partner): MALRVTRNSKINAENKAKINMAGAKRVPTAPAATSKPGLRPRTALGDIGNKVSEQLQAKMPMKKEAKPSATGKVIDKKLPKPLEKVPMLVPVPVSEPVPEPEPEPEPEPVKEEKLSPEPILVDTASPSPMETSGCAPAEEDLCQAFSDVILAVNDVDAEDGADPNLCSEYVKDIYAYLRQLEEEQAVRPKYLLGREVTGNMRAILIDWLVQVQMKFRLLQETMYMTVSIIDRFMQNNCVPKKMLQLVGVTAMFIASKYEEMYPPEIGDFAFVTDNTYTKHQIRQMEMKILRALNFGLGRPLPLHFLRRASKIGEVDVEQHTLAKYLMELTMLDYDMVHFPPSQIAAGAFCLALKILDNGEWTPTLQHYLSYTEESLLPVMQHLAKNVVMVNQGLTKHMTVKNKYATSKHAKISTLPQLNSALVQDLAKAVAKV
T3 sequence (P04626 676-1255 limits assumed): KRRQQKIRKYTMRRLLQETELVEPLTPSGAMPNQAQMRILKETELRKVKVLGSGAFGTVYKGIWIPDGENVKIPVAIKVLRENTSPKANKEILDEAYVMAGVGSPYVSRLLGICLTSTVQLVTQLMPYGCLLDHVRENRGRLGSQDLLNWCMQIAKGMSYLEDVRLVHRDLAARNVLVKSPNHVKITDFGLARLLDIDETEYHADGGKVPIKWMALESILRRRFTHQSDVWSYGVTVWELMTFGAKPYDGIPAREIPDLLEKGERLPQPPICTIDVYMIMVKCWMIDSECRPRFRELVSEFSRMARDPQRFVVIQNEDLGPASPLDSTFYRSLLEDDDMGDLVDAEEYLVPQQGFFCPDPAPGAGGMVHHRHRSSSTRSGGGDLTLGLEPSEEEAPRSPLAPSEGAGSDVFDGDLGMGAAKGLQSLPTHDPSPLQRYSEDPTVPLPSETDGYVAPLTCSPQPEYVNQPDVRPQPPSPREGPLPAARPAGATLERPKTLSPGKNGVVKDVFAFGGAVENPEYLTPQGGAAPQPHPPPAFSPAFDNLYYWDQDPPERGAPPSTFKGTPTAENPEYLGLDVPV

Turning to `COc1cc(Nc2nccc(-c3c[nH]c4ncccc34)n2)cc(OC)c1OC` [Cpd 2, [4-(1H-Pyrrolo[2,3-b]pyridin-3-yl)-pyrimidin-2-yl]-(3,4,5-trimethoxy-phenyl)-amine], the IC50 (in general, the concentration at which inhibition is half-maximal) against CDK1:Cyclin-B came out at 0.169 µM; at VEGF-R2, 0.046 µM; on HER2, 0.206 µM; against Aurora-A, 0.063 µM; in experiment [1], 0.33 µM; with HCT-116 colon carcinoma, 0.56 µM. Inhibition in the experiment on A375 malignant melanoma was half-maximal at 0.75 µM (IC50).
In the case of `Cc1cccc(C)c1Nc1nccc(-c2c[nH]c3ncccc23)n1` [Cpd 35, (2,6-Dimethylphenyl)-[4-(1H-pyrrolo[2,3-b]pyridin-3-yl)-pyrimidin-2-yl]-amine], the IC50 at CDK1:Cyclin-B was 0.017 µM; at VEGF-R2, 0.975 µM; against Aurora-A, 0.556 µM; at RET it was 1 µM; in experiment [1], 0.0903 µM; in the experiment with HCT-116 colon carcinoma, 0.0331 µM. The compound also registered an IC50 with A375 malignant melanoma of 0.0369 µM.
Consider `Nc1ccc(Nc2nccc(-c3c[nH]c4ncccc34)n2)cc1` [Cpd 37, (4-Aminophenyl)-[4-(1H-pyrrolo[2,3-b]pyridin-3-yl)-pyrimidin-2-yl]-amine], for which the IC50 is 0.035 µM at CDK1:Cyclin-B; 0.211 µM against VEGF-R2; 0.386 µM on Aurora-A; 1.62 µM on RET; 0.194 µM in experiment [1]; 0.0828 µM in the experiment on HCT-116 colon carcinoma. This compound also gave an IC50 in the experiment on A375 malignant melanoma of 0.185 µM.
With `CN(C)c1ccc(Nc2nccc(-c3c[nH]c4ncccc34)n2)cc1` [Cpd 38, (4-Dimethylaminophenyl)-[4-(1H-pyrrolo[2,3-b]pyridin-3-yl)-pyrimidin-2-yl]-amine], the IC50 against CDK1:Cyclin-B turned out to be 0.0096 µM; on VEGF-R2, 0.081 µM; against Aurora-A it was 0.112 µM; against RET it was 0.821 µM; in experiment [1] it was 0.0358 µM; in the experiment on HCT-116 colon carcinoma it was 0.0216 µM. The compound further registered an IC50 with A375 malignant melanoma of 0.0494 µM.
Consider `CCOc1ccc(Nc2nccc(-c3c[nH]c4ncccc34)n2)cc1` [Cpd 40, (4-Ethoxyphenyl)-[4-(1H-pyrrolo[2,3-b]pyridin-3-yl)-pyrimidin-2-yl]-amine], for which the IC50 was 0.01 µM on CDK1:Cyclin-B; 0.149 µM against VEGF-R2; 0.084 µM on Aurora-A; 1 µM against RET; 0.0662 µM in experiment [1]; 0.0244 µM in the experiment with HCT-116 colon carcinoma. The compound further came in with an IC50 in the experiment on A375 malignant melanoma of 0.0565 µM.
Consider `CNCCc1ccc(Nc2nccc(-c3c[nH]c4ncccc34)n2)c(C)c1` [Cpd 45], for which the IC50 is 0.00095 µM against CDK1:Cyclin-B; 0.583 µM at VEGF-R2; 0.317 µM at Aurora-A; 1.54 µM at RET; 0.00337 µM in experiment [1]; 0.0022 µM in the experiment on HCT-116 colon carcinoma. Moreover, the IC50 in the experiment with A375 malignant melanoma was 0.00167 µM.
With `CCN(CC)CCc1ccc(Nc2nccc(-c3c[nH]c4ncccc34)n2)c(C)c1` [Cpd 47], the IC50 against CDK1:Cyclin-B came out at 0.0014 µM; on VEGF-R2, 0.882 µM; against Aurora-A it was 0.972 µM; against RET it was 1.4 µM; in experiment [1], 0.00302 µM; in the experiment with HCT-116 colon carcinoma, 0.00292 µM. The compound also yielded an IC50 in the experiment with A375 malignant melanoma of 0.00288 µM.
On to `Cc1cc(CCN2CCOCC2)ccc1Nc1nccc(-c2c[nH]c3ncccc23)n1` [Cpd 49, {4-[2-(Morpholin-4-yl)ethyl]-2-methylphenyl}-[4-(1H-pyrrolo[2,3-b]pyridin-3-yl)-pyrimidin-2-yl]-amine], for which the IC50 against CDK1:Cyclin-B turned out to be 0.00196 µM; at VEGF-R2, 0.75 µM; against Aurora-A, 0.333 µM; against RET, 2.28 µM; in experiment [1], 0.00252 µM; with HCT-116 colon carcinoma, 0.00294 µM. This compound also displayed an IC50 with A375 malignant melanoma of 0.00282 µM.
On to `Cc1cc(CCN2CCCCC2)ccc1Nc1nccc(-c2c[nH]c3ncccc23)n1` [Cpd 50, {4-[2-(Piperidin-1-yl)ethyl]-2-methylphenyl}-[4-(1H-pyrrolo[2,3-b]pyridin-3-yl)-pyrimidin-2-yl]-amine], for which the IC50 against CDK1:Cyclin-B was determined as 0.0011 µM; at VEGF-R2, 0.959 µM; at Aurora-A it was 0.902 µM; on RET it was 3.07 µM; in experiment [1] it was 0.00268 µM; in the experiment with HCT-116 colon carcinoma it was 0.00283 µM. In the experiment with A375 malignant melanoma, this compound gave an IC50 of 0.00284 µM.
With `OCCc1ccc(Nc2nccc(-c3c[nH]c4ncccc34)n2)c(Cl)c1` [Cpd 52], the IC50 on CDK1:Cyclin-B came out at 0.0087 µM; against VEGF-R2, 0.322 µM; on Aurora-A, 0.0757 µM; on RET it was 0.54 µM; in experiment [1], 0.162 µM; in the experiment with HCT-116 colon carcinoma, 0.121 µM. Also, the midpoint of inhibition in the experiment with A375 malignant melanoma, the IC50, lay at 0.134 µM.
Regarding `CNCCc1ccc(Nc2nccc(-c3c[nH]c4ncccc34)n2)c(Cl)c1` [Cpd 53], the IC50 was 0.0441 µM on CDK1:Cyclin-B; 1.31 µM against VEGF-R2; 0.408 µM against Aurora-A; 2.36 µM at RET; 0.123 µM in experiment [1]; 0.127 µM with HCT-116 colon carcinoma. This compound also yielded an IC50 with A375 malignant melanoma of 0.0913 µM.
Take `CN(C)CCc1ccc(Nc2nccc(-c3c[nH]c4ncccc34)n2)c(Cl)c1` [Cpd 54]: the IC50 is 0.0612 µM at CDK1:Cyclin-B; 2.31 µM on VEGF-R2; 0.908 µM against Aurora-A; 4.06 µM against RET; 0.281 µM in experiment [1]; 0.269 µM with HCT-116 colon carcinoma. This compound registered an IC50 in the experiment on A375 malignant melanoma of 0.215 µM.
In the case of `CN1CCN(CCc2ccc(Nc3nccc(-c4c[nH]c5ncccc45)n3)c(Cl)c2)CC1` [Cpd 55, {2-Chloro-4-[2-(4-methylpiperizin-1-yl)ethyl]phenyl}-[4-(1H-pyrrolo[2,3-b]pyridin-3-yl)-pyrimidin-2-yl]-amine], the IC50 against CDK1:Cyclin-B was determined as 0.0408 µM; against VEGF-R2, 0.342 µM; against Aurora-A, 0.785 µM; at RET, 1.15 µM; in experiment [1], 0.292 µM; with HCT-116 colon carcinoma, 0.264 µM. Further, inhibition in the experiment with A375 malignant melanoma was half-maximal at 0.233 µM (IC50).
As to `Clc1cc(CCN2CCOCC2)ccc1Nc1nccc(-c2c[nH]c3ncccc23)n1` [Cpd 56, {2-Chloro-4-[2-(morpholin-4-yl)ethyl]phenyl}-[4-(1H-pyrrolo[2,3-b]pyridin-3-yl)-pyrimidin-2-yl]-amine], the IC50 on CDK1:Cyclin-B stood at 0.105 µM; against VEGF-R2, 1.04 µM; at Aurora-A, 0.859 µM; on RET, 1.24 µM; in experiment [1] it was 1.1 µM; with HCT-116 colon carcinoma, 0.774 µM. In the experiment with A375 malignant melanoma, this compound returned an IC50 of 0.727 µM.
Regarding `c1cnc2[nH]cc(-c3ccnc(NC4CCNCC4)n3)c2c1` [Cpd 65, Piperidin-4-yl-[4-(1H-pyrrolo[2,3-b]pyridin-3-yl)pyrimidin-2-yl]-amine], the IC50 at CDK1:Cyclin-B was 0.0603 µM; at VEGF-R2, 1.07 µM; against Aurora-A it was 1.3 µM; on RET it was 1.23 µM; in experiment [1], 0.0269 µM; in the experiment with HCT-116 colon carcinoma it was 0.015 µM. Also, in the experiment on A375 malignant melanoma, the IC50 turned out to be 0.0218 µM.
Turning to `Cc1cc(O)ccc1Nc1nccc(-c2c[nH]c3ncccc23)n1` [Cpd 79, 3-Methyl-4-[4-(1H-pyrrolo[2,3-b]pyridin-3-yl)-pyrimidin-2-ylamino]-phenol], the IC50 stood at 0.000764 µM against CDK1:Cyclin-B; 0.927 µM on VEGF-R2; 0.119 µM against Aurora-A; 4.82 µM on RET; 0.0059 µM in experiment [1]; 0.00492 µM in the experiment with HCT-116 colon carcinoma. Moreover, the half-inhibitory concentration (IC50) in the experiment with A375 malignant melanoma was 0.00858 µM.
